Assay results reported in the METLIN SMRT retention time set (Domingo-Almenara et al. 2019).

Assay: gradient 5% acetonitrile 3 min, to 50% in 2 min, to 85% in 15 min, held 3 min, 100 µL/min
Settings: column: Zorbax Extend-C18 2.1 x 50 mm; eluents: water / acetonitrile, 0.1% formic acid
In short: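 Pure standards were analyzed in mixtures of ~100 molecules using HPLC coupled to a quadrupole time-of-flight mass spectrometer, in both positive and negative ionization mode. Separation used a Zorbax Extend-C18 column (2.1 × 50 mm, 1.8 μm) at 100 μL/min, with water and acetonitrile each containing 0.1% formic acid. Dead and dwell volumes were 40 μL and 900 μL, and data were collected over 3 months. Retention time was read from computationally picked adduct peaks, each inspected manually.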

Row | Structure (SMILES) | RP-LC retention time [s]
1 | CCc1nn(CC(=O)NCCc2c[nH]c3ccccc23)c(=O)c2cc3sccc3n12 | 842
2 | CCc1ccc(N2C(=O)CN(Cc3ccc(OC)cc3)[C@H]3CS(=O)(=O)C[C@H]32)cc1 | 866
3 | Cc1ccc(C(=O)Nc2c(-c3ccccc3)nc3ccccn23)cc1[N+](=O)[O-] | 693
4 | Cc1cc(C(=O)NCc2cc(F)cc(F)c2)nc2cc(-c3cccs3)nn12 | 1120
5 | CCN1CCN(C(=O)c2ccc(-c3ccc4c(c3)CCN4C(C)=O)cc2)CC1 | 607
6 | COCCC(=O)N1CCC2(CCC2OC)CC1 (stereo unspecified) | 664
7 | O=C(N[C@H]1C[C@@H]2C[C@H]1N(C(=O)c1ccc3c(c1)OCO3)C2)c1ccccc1 | 721
8 | C[C@@H](NCCc1ccc(O)cc1)[C@@H](O)c1ccc(O)cc1 | 362
9 | CSC(=O)NC(=O)NC(=O)c1ccc([N+](=O)[O-])cc1 | 849
10 | COCCN1C(=O)CCc2cc(NS(=O)(=O)c3ccc(C)c(F)c3)ccc21 | 802
11 | COCCN1C(=O)CCc2cc(NS(=O)(=O)c3cc(C)cc(C)c3)ccc21 | 816
12 | Cc1ccsc1C(=O)Nc1nnc(SCc2nnc(-c3ccc4c(c3)OCO4)o2)s1 | 884
13 | COc1cc2c(cc1NC(=O)c1ccco1)n(C)c(=O)n2C | 688
14 | COc1cncc(C(=O)Nc2cc(F)cc(F)c2)c1 | 797
15 | CCOc1ccc(-c2noc(Cn3c(=O)n(CC(C)C)c(=O)c4ccccc43)n2)cc1 | 1210
16 | Cc1nc(C)c(C(=O)Nc2nc(-c3cccc(Cl)c3)c(C)s2)s1 | 1070
17 | O=c1c2sccc2n(Cc2nc(-c3ccc(Cl)c(F)c3)no2)c(=O)n1Cc1ccccc1 | 1210
18 | COc1ccc(-c2c(C)noc2NC(C)=O)cc1S(=O)(=O)Nc1ccccc1F | 783
19 | CCCc1cc(N2CCN(C(=O)c3cc(OC)cc(OC)c3)CC2)nc2nncn12 | 576
20 | COCc1noc([C@@H]2CN(C(=O)C3(c4ccccc4)CC3)C[C@H]2CO)n1 | 676
21 | O=C(Nc1ccccc1)OC1CCCC(NC(=O)C2(c3ccccc3)CCOCC2)C1 (stereo unspecified) | 857

Row | Structure (SMILES) | RP-LC retention time [s]
22 | Cc1ccc2c(c1)NN=C(C(=O)N1CCOCC1)S2(=O)=O | 639
23 | Cc1cccc(C)c1Nc1c(-c2ccc(Cl)cc2)nc2cnccn12 | 1030
24 | COc1cc(OC)cc(-c2nc(Cn3c(C)nc4ccccc4c3=O)no2)c1 | 876
25 | COc1cc(NS(=O)(=O)c2cn(C(C)C)c3ncccc23)cc(OC)c1 | 876
26 | CCCN1C(=O)CN(S(C)(=O)=O)CC1(C)C(=O)NCc1ccc(C)cc1 (stereo unspecified) | 758
27 | N#Cc1ccccc1CN1CCC2(CCC2O)CC1 (stereo unspecified) | 565
28 | Cc1ccc(N2CCC(NC(=O)CC(C)C)C2=O)cc1 (stereo unspecified) | 762
29 | Cc1ccccc1-c1nnc(CSc2nnc(NC(=O)c3ccccc3Br)s2)o1 | 943
30 | CCc1ccc(-n2ncc3c(=O)n(Cc4nc(-c5ccc(OC)c(OC)c5)no4)cnc32)cc1 | 1060
31 | CCN1c2cc(F)ccc2C(=O)NC12CCN(C(=O)c1ccc(OC)cc1)CC2 | 780
32 | CCOC(=O)c1c(NCc2ccc(F)cc2)c2ccc(Cl)cc2[nH]c1=O | 858
33 | COc1ccc(OC)c(CNC(=O)CN2C(=O)C(C)(C)c3cc(C)ccc32)c1 | 689
34 | CC(NC(=O)C(=O)NCC1CCN(C(=O)NC(C)(C)C)CC1)c1ccccc1 (stereo unspecified) | 749
35 | COc1cccc(-c2noc(Cc3nnc(-c4cccc(Cl)c4)o3)n2)c1OC | 1000
36 | N#Cc1ccc(-c2nc(C3CC(=O)N(c4ccc(Cl)cc4)C3)no2)cc1 (stereo unspecified) | 996
37 | COc1ccc(-c2csc(NC(=O)c3ccc([N+](=O)[O-])cc3)n2)cc1 | 1070
38 | CCCCN1CCN(Cc2nc(-c3ccc(N4CCSCC4)nc3)no2)CC1 | 653
39 | CCOc1ccc(-c2noc(Cn3nc(-c4ccccc4F)ccc3=O)n2)cc1OC | 964
40 | COC(=O)c1sccc1S(=O)(=O)NCC1CCN(Cc2cc(C)oc2C)CC1 | 579
41 | COc1ccc(CNC(=O)Cn2c(C(F)(F)F)nc3cc4c(cc32)OCCO4)cc1 | 813

Other lines, results leading:

Row | RP-LC retention time [s] | Structure (SMILES)
42 | 1040 | CCCNC(=O)N1CC(Oc2cccc(-c3nc(-c4ccccc4)no3)c2)C1
43 | 689 | O=C(Nc1ccc(N2CCN(c3ccccc3)C2=O)nc1)c1cccnc1
44 | 1270 | Cc1ccc(-c2noc(C3CCCN3S(=O)(=O)c3cccc(Cl)c3C)n2)cc1 (stereo unspecified)
45 | 726 | CC(CCNC(=O)c1cc2c(-c3cccs3)nn(-c3ccccc3)c2n1C)N1CCCC1 (stereo unspecified)
46 | 1100 | O=S(=O)(c1ccc2nc(N3CCN(c4cccc(Cl)c4)CC3)ccc2c1)N1CCCC1
47 | 746 | O=C(NCc1ccccc1)C1CCCN(C(=O)C2Sc3ccccc3NC2=O)C1 (stereo unspecified)
48 | 1260 | CC1CCN(c2ccc(-c3noc(CN4C(=O)COc5ccccc54)n3)cc2)CC1
49 | 942 | Cc1ccc(CNC(=O)C2(C)CN(S(=O)(=O)c3ccccc3)CC(=O)N2c2ccc(F)cc2)cc1 (stereo unspecified)
50 | 687 | Cc1ccc(C)c(NC(=O)Cn2nc3nc(N4CCCC4)ccn3c2=O)c1
51 | 588 | CC(C)N1CCN(C(=O)c2ccc(-c3cccs3)nc2)CC1
52 | 770 | Cc1cc(C)cc(C(=O)NC2CCN(c3cc(-c4ccccc4)[nH]n3)C2)c1 (stereo unspecified)
53 | 660 | O=C(Cn1ccc2cc(S(=O)(=O)N3CCCCC3)ccc21)N1CCN(c2ccccn2)CC1
54 | 719 | COc1ccccc1CNC(=O)C1CCc2nc(N3CCOCC3)ncc2C1 (stereo unspecified)
55 | 678 | O=C1NC2(CCN(C(=O)c3ccc4c(c3)OCO4)CC2)Nc2c(Cl)cccc21
56 | 561 | O=C(NCc1ccncc1)C1CCCN(c2nnc3c(Cl)cccn23)C1 (stereo unspecified)
57 | 857 | COc1ccc(CNC(=O)C2CCCN(c3nc4ccsc4c(=O)n3-c3ccc(F)cc3)C2)cc1 (stereo unspecified)
58 | 720 | CCn1c(=O)c(C(=O)NCc2ccc(OC)cc2)nc2cccnc21
59 | 613 | O=C(NCCN1CCCCC1)C1CN(S(=O)(=O)c2cccnc2)CC12CCCCC2 (stereo unspecified)
60 | 800 | CCOC(=O)C1CCCN(C(=O)CCCOc2cc(=O)n(C)c3ccccc23)C1 (stereo unspecified)
61 | 829 | CCN(Cc1ccccc1)C(=O)Cn1nc2c(N3CCSCC3)nccn2c1=O
62 | 887 | O=C(c1cccs1)N1CCc2cc(-c3ccno3)ccc21
63 | 594 | O=C(NCc1ccc2c(c1)OCO2)C1Cn2cccc2C(=O)N1Cc1cccnc1 (stereo unspecified)
64 | 731 | Cc1nc(NC2=NCN(CCc3cccs3)CN2)nc2ccccc12
65 | 768 | Cc1ccccc1C1CCCN1C(=O)c1ccnn1C (stereo unspecified)
66 | 787 | O=C(Nc1cc(F)c2nc(N3CCOCC3)ccc2c1)c1cccs1
